According to patent US20260158056A1, “USE OF LOW MOLECULAR WEIGHT HYALURONIC ACID FOR THE TREATMENT OF LUNG MUCOSAL INFLAMMATION” (INSTITUT NATIONAL DE LA SANTÉ ET DE LA RECHERCHE MÉDICALE, priority 2021, published 2026):

Tests used:
Format in all cases: cell-based
[1] = system: IL-8 secreted by non-CF human airway epithelial cells; test: IL-8 ELISA, non-CF airway epithelial cell monolayers, Cytomix 24 h then Cytomix + treatment 24 h (curative); settings: FIG. 12, 15; curative: Cytomix 24 h, then Cytomix + HA 1 mg/mL or Dexa 10^-6M 24 h; n=8 non-CF patients
Method: FIG. 12: Measurement by ELISA assay of the pro-inflammatory chemokine IL-8 secreted non-CF human airway epithelial cells cultured as monolayers. Airway epithelial cells were seeded in 48-wells plates and cultured until confluence was reached. Cells were then treated for 24 h with a pro-inflammatory chemokine cocktail (TNFα, IL1β and IFNγ 10 ng/ml each) called Cytomix (Cy). Cells were thereafter treated with a combo containing Cytomix and the anti-inflammatory dexamethasone (Dexa; 10^-6M), 15-45 kDa sodium-hyaluronic acid (HA-Na 15-45 kDa) (ARD—Pomacle—France—as prepared according to WO2004050187), 15-30 kDa sodium-hyaluronic acid (HA-Na 15-30 kDa) (Sigma Aldrich), or 30-50 kDa sodium-hyaluronic acid (HA-Na 30-50 kDa) (Sigma Aldrich) at 1 mg/mL during the following 24 h. The culture medium was finally collected and the IL-8 content was determined by ELISA assay. n=8 different non-CF patients. p<0.001 (***); p<0.01 (**); p<0.05 (*). ns: non-significant.
(§1) FIG. 15: Measurement by ELISA assay of the pro-inflammatory chemokine IL-8 secreted by non-CF human airway epithelial cells cultured as monolayers. Airway epithelial cells were seeded in 48-wells plates and cultured until confluence was reached. Cells were then treated for 24 h with a pro-inflammatory chemokine cocktail (TNFα, IL1β and IFNγ 10 ng/ml each) called Cytomix (Cy). Cells were thereafter treated with a combo containing Cytomix and the anti-inflammatory dexamethasone (Dexa; 10^-6M), 15-45 kDa sodium-hyaluronic acid (HA-Na 15-45 kDa) (ARD—Pomacle—France—as prepared according to WO2004050187), 15-45 kDa calcium-hyaluronic acid (HA-Ca 15-45 kDa; ARD), or 15-45 kDa potassium hyaluronic acid (HA-K 15-45 kDa; ARD) at 1 mg/mL during the following 24 h. The culture medium was finally collected and the IL-8 content was determined. n=8 different non-CF patients. p<0.001 (***); p<0.01 (**); p<0.05 (*). ns: non-significant.

[2] = system: IL-8 secreted by non-CF human airway epithelial cells; test: IL-8 ELISA, non-CF airway epithelial cell monolayers, Cytomix + treatment 24 h (co-treatment); settings: FIG. 13, 16; co-treatment: Cytomix + HA 1 mg/mL or Dexa 10^-6M 24 h; n=8 non-CF patients
Method: (§2) FIG. 13: Measurement by ELISA assay of the pro-inflammatory chemokine IL-8 secreted by non-CF human airway epithelial cells cultured as monolayers. Airway epithelial cells were seeded in 48-wells plates and cultured until confluence was reached. Cells were then treated for 24 h with a combo containing a pro-inflammatory chemokine cocktail (TNFα, IL1β and IFNγ 10 ng/ml each) called Cytomix (Cy) and the anti-inflammatory dexamethasone (Dexa; 10^-6M), 15-45 kDa sodium-hyaluronic acid (HA-Na 15-45 kDa) (ARD—Pomacle—France—as prepared according to WO2004050187), 15-30 kDa sodium-hyaluronic acid (HA-Na 15-30 kDa) (Sigma Aldrich), or 30-50 kDa sodium-hyaluronic acid (HA-Na 30-50 kDa) (Sigma Aldrich) at 1 mg/mL. The culture medium was then collected and the IL-8 content was determined. n=8 different non-CF patients. p<0.001 (***); p<0.01 (**); p<0.05 (*). ns: non-significant.
as §1, with “FIG. 16: Measurement by” for “FIG. 15: Measurement by”, “with a combo containing a pro-inflammatory chemokine” for “with a pro-inflammatory chemokine”, “called Cytomix (Cy) and the” for “called Cytomix (Cy). Cells were thereafter treated with a combo containing Cytomix and the”, “at 1 mg/mL. The culture” for “at 1 mg/mL during the following 24 h. The culture”, “medium was then collected and” for “medium was finally collected and”

[3] = system: IL-8 secreted by human COPD airway epithelial cells; test: IL-8 ELISA, COPD airway epithelial cell monolayers, Cytomix + treatment 24 h (co-treatment); settings: FIG. 18, 20; co-treatment: Cytomix + HA 1 mg/mL or Dexa 10^-6M 24 h; n=5 COPD patients
Method: as §2, with “18:” for “13:”, “by” for “by non-CF”, “human COPD” for “human”, “ng/mL” for “ng/ml”, “n=5 COPD patient.” for “n=8 different non-CF patients.”
FIG. 20: Measurement by ELISA assay of the pro-inflammatory chemokine IL-8 secreted by human COPD airway epithelial cells cultured as monolayers. Airway epithelial cells were seeded in 48-wells plates and cultured until confluence was reached. Cells were then treated for 24 h with a combo containing a pro-inflammatory chemokine cocktail (TNFα, IL1β and IFNγ 10 ng/ml each) called Cytomix (Cy) and the anti-inflammatory dexamethasone (Dexa; 10^-6M), 15-45 kDa sodium-hyaluronic acid (HA-Na 15-45 kDa) (ARD—Pomacle—France—as prepared according to WO2004050187), 15-45 kDa calcium-hyaluronic acid (HA-Ca 15-45 kDa; ARD), or 15-45 kDa potassium hyaluronic acid (HA-K 15-45 kDa; ARD) at 1 mg/mL. The culture medium was then collected and the IL-8 content was determined. n=5 different COPD patients. p<0.001 (***); p<0.01 (**); p<0.05 (*). ns: non-significant.

Row | Compound | decrease in IL-8 secretion [1] [%] | decrease in IL-8 secretion [2] [%] | decrease in IL-8 secretion [3] [%]
1 | 15-30 kDa sodium-hyaluronic acid [HA-Na 15-30 kDa] | 46.1 | 38.1 | 43.1
2 | 15-45 kDa calcium-hyaluronic acid [HA-Ca 15-45 kDa] | 6.5 | 8.5 | 12.9
3 | 15-45 kDa potassium-hyaluronic acid [HA-K 15-45 kDa] | 17.8 | 22.2 | 27.5
4 | 15-45 kDa sodium-hyaluronic acid [HA-Na 15-45 kDa] | 39.6 | 41.6 | 33.4
5 | 30-50 kDa sodium-hyaluronic acid [HA-Na 30-50 kDa] | 34.8 | 32.1 | 30.8
6 | C[C@@H]1C[C@H]2[C@@H]3CCC4=CC(=O)C=C[C@]4(C)[C@@]3(F)[C@@H](O)C[C@]2(C)[C@@]1(O)C(=O)CO [Dexamethasone, dexamethasone, reference compound] | 21.1 | 33.9 | 32.1
